For the data set the following is noted: 101.33 kPa, Liquid, Vibrating tube method.

Each structure is given as a SMILES string. Numbers after ± are expanded uncertainties.

The term mass density denotes mass per unit of volume. For the compound `C[n+]1ccn(CCCCS(=O)(=O)O)c1.O=S(=O)([O-])O` [1-methyl-3-(4-sulfobutyl)-imidazolium hydrogensulfate], the mass density (283.15 K) is recorded as 1450.3 ± 80 kg/m3; the mass density (288.15 K) is recorded as 1447.02 ± 80 kg/m3; the mass density (298.15 K) came to 1437.08 ± 80 kg/m3; the mass density (303.15 K) is reported as 1433.68 ± 80 kg/m3; the mass density (313.15 K) is recorded as 1426.76 ± 80 kg/m3; the mass density (323.15 K) came to 1420.51 ± 80 kg/m3. In addition, the mass density was determined as 1414.28 ± 80 kg/m3 (333.15 K), 1408.07 ± 80 kg/m3 (343.15 K) and 1401.8 ± 80 kg/m3 (353.15 K).
In the case of `CC(O)C(=O)[O-].CCn1cc[n+](C)c1` [1-ethyl-3-methylimidazolium lactate], the mass density reads like this: (278.15 K) 1157.45 ± 7.3 kg/m3; (283.15 K) 1153.47 ± 7.2 kg/m3; (288.15 K) 1149.77 ± 7.2 kg/m3; (293.15 K) 1146.11 ± 7.1 kg/m3; (298.15 K) 1142.46 ± 7.1 kg/m3; (303.15 K) 1138.89 ± 7 kg/m3. In addition, the mass density reads like this: (308.15 K) 1135.43 ± 7 kg/m3; (313.15 K) 1131.95 ± 7 kg/m3; (318.15 K) 1128.51 ± 6.9 kg/m3; (323.15 K) 1125.07 ± 6.9 kg/m3; (328.15 K) 1121.67 ± 6.8 kg/m3; (333.15 K) 1118.51 ± 6.8 kg/m3. Moreover, the mass density reads like this: (338.15 K) 1117.98 ± 6.8 kg/m3; (343.15 K) 1111.66 ± 6.7 kg/m3; (348.15 K) 1108.39 ± 6.7 kg/m3; (353.15 K) 1105.14 ± 6.6 kg/m3.
For the compound `C[n+]1ccn(CCCCS(=O)(=O)O)c1.O=S(=O)([N-]S(=O)(=O)C(F)(F)F)C(F)(F)F`, the mass density was found to be 1597.92 ± 80 kg/m3 (283.15 K); 1592.96 ± 80 kg/m3 (288.15 K); 1587.85 ± 80 kg/m3 (293.15 K); 1582.58 ± 80 kg/m3 (298.15 K); 1577.87 ± 80 kg/m3 (303.15 K); 1573.18 ± 80 kg/m3 (308.15 K). Also, the mass density by setting is: (313.15 K) 1568.52 ± 80 kg/m3; (318.15 K) 1563.87 ± 80 kg/m3; (323.15 K) 1559.23 ± 80 kg/m3; (328.15 K) 1554.6 ± 80 kg/m3; (333.15 K) 1550.01 ± 80 kg/m3; (338.15 K) 1545.56 ± 80 kg/m3. The mass density is given as 1541.12 ± 80 kg/m3 (343.15 K), 1536.68 ± 80 kg/m3 (348.15 K) and 1532.23 ± 80 kg/m3 (353.15 K).
On to `CCC[n+]1cccc(C)c1.O=S(=O)([N-]S(=O)(=O)C(F)(F)F)C(F)(F)F`, for which the mass density reads like this: (278.15 K) 1467.23 ± 80 kg/m3; (283.15 K) 1462.43 ± 80 kg/m3; (288.15 K) 1457.62 ± 80 kg/m3; (293.15 K) 1452.81 ± 80 kg/m3; (298.15 K) 1448.03 ± 80 kg/m3; (303.15 K) 1443.28 ± 80 kg/m3. The mass density (308.15 K) is 1438.54 ± 80 kg/m3; the mass density (313.15 K) is recorded as 1433.81 ± 80 kg/m3; the mass density (318.15 K) came to 1429.11 ± 80 kg/m3; the mass density (323.15 K) turned out to be 1424.43 ± 80 kg/m3; the mass density (328.15 K) turned out to be 1419.79 ± 80 kg/m3; the mass density (333.15 K) amounted to 1415.16 ± 80 kg/m3. Also, the mass density is, setting by setting: (338.15 K) 1409.8 ± 80 kg/m3; (343.15 K) 1405.96 ± 80 kg/m3; (348.15 K) 1401.4 ± 80 kg/m3; (353.15 K) 1396.85 ± 80 kg/m3.

Source of the values: the NIST ThermoML archive (doi:10.1016/j.fluid.2016.03.009).
